Assay results published in patent US10369185B2, “Methods and compositions for enhancement of ability to concentrate” (KYOWA HAKKO BIO CO., LTD., priority 2014, dated 2019).
Peptide text beside a SMILES is read from it.

What was measured:
[1] = in vivo; cited from earlier work
male runners = experiment: Dynavision D2 MODE B reaction test with cognitive load (hits and time per hit in 60 s); assay type: in vivo, human; parameters: Mode B Avg Δ, Mean Difference: unit not given here; conditions: for Mode B Avg Δ (time per hit), group mean / Mode B Hits Δ, group mean: Post-Pre
Protocol: The testing protocol is depicted in FIG. 1. Data collection occurred on four separate occasions. Each session required participants to perform a 60-min run at 75% of their previously measured VO2max. Following this run, all participants performed a run at 90% of their VO2max until volitional exhaustion. All participants performed their first trial (DHY) without any rehydration. During this session the total weight lost during the trial was determined. The fluid loss that occurred during this session was then used to determine the participant's swear rate (L·hr^−1). To continue in the study, participant's sweat rate was or exceeded 1.3 L·hr^−1. During the next three trails participants were provided 250 ml of fluid every 15 minutes in equal amounts. During one of the trials participants consumed only a flavored sports drink (ELECT only), while during the other trials participants consumed the alanine-glutamine supplement (Sustamine™) mixed in the same flavored sports drink at either a low (LD: 300 mg per 500 ml) or high (HD: 1 g per 500 ml) dose. Measurement of upper body reaction time was performed on the Dynavision D2 Visuomotor Training Device (D2; Dynavision International LLC, West Chester, Ohio). The D2 is a light training reaction device, developed to train sensory motor integration through the visual system. It consists of a board (4 foot×4 foot) that can be raised or lowered relative to the height of the operator. It contains 64 target buttons arranged into five concentric circles surrounding a center screen that can be illuminated to serve as a stimulus for the participant. Participants were required to assume a comfortable athletic stance and stand at a distance from the board where they could easily reach all of the lights. The board height was adjusted so the LCD screen was located just below eye level. A total of three different reaction tests were conducted. Participants were instructed to fixate their gaze on the LCD screen in the middle of the board and to keep their focus there for the entirety of the experiment. The third assessment (MODE B) was similar to the previous measure in that participants were required to react to a visual stimulus as it changed positions on the board. However, the difference between the two assessments was that the stimulus remained for 1 s before it changed to another random location, and each participant was required to verbally recite a five digit number that was presented on the center screen of the D2 during each assessment. The appearance of the digits placed an additional demand on the information processing resources of the participant. The participant was instructed to successfully identify and strike each stimulus before it changed position and score as many strikes as possible within 60 s. The number of successful hits was recorded for each participant. Additionally, to make inferences on true effects of the different trials on reaction performance, an analysis based on the magnitude of differences, calculated from 90% confidence intervals, as previously described by Batterham and Hopkins (2005), was used in this study. Differences in Post-Pre performance (Δresponse) between trials were analyzed via a published spreadsheet (Hopkins 2007), with the smallest non-trivial change set at 20% of the grand standard deviation (Batterham and Hopkins 2005). All data are expressed as a mean effect±SD, with percent chances of a beneficial, trivial or negative outcome. Qualitative inferences, based on quantitative chances were assessed as: <1% almost certainly not, 1-5% very unlikely, 5-25% unlikely, 25-75% possibly, 75-95% likely, 95-99% very likely and >99% almost certainly (Hopkins 2002).

Question: For C[C@H](N)C(=O)N[C@@H](CCC(N)=O)C(=O)O [L-Alanyl-L-Glutamine] (H-Ala-Gln-OH), which “degradation in the body” value [1] is on record?
Answer: immediately degraded into alanine and glutamine in the body

Question: And the “Mode B Avg Δ, Interpretation” value (male runners; Dehydration vs High Dose)?
Answer: likely negative

Question: And the “Mode B Avg Δ, Mean Difference” value (male runners; Dehydration vs High Dose)?
Answer: −0.023

Question: And the “Mode B Avg Δ, Percent Negative” value (male runners; Dehydration vs High Dose)?
Answer: 82.12%

Question: What about the “Mode B Avg Δ, Percent Positive” value (male runners; Dehydration vs High Dose) of the same molecule?
Answer: 1.37%

Question: What about the “Mode B Avg Δ, Percent Trivial” value (male runners; Dehydration vs High Dose) of the same molecule?
Answer: 16.50%

Question: And the “Mode B Hits Δ, Interpretation” value (male runners; Dehydration vs High Dose)?
Answer: Unclear

Question: What about the “Mode B Hits Δ, Mean Difference” value (male runners; Dehydration vs High Dose) of the same molecule?
Answer: 0.67

Question: And the “Mode B Hits Δ, Percent Negative” value (male runners; Dehydration vs High Dose)?
Answer: 20.22%

Question: What about the “Mode B Hits Δ, Percent Positive” value (male runners; Dehydration vs High Dose) of the same molecule?
Answer: 31.57%

Question: And the “Mode B Hits Δ, Percent Trivial” value (male runners; Dehydration vs High Dose)?
Answer: 48.20%

Question: And the “Mode B Avg Δ, Interpretation” value (male runners; Dehydration vs Low Dose)?
Answer: Unclear

Question: What about the “Mode B Avg Δ, Mean Difference” value (male runners; Dehydration vs Low Dose) of the same molecule?
Answer: −0.0075

Question: What about the “Mode B Avg Δ, Percent Negative” value (male runners; Dehydration vs Low Dose) of the same molecule?
Answer: 41.89%

Question: And the “Mode B Avg Δ, Percent Positive” value (male runners; Dehydration vs Low Dose)?
Answer: 8.13%

Question: And the “Mode B Avg Δ, Percent Trivial” value (male runners; Dehydration vs Low Dose)?
Answer: 49.99%

Question: What about the “Mode B Hits Δ, Interpretation” value (male runners; Dehydration vs Low Dose) of the same molecule?
Answer: Unclear

Question: And the “Mode B Hits Δ, Mean Difference” value (male runners; Dehydration vs Low Dose)?
Answer: −1.1

Question: What about the “Mode B Hits Δ, Percent Negative” value (male runners; Dehydration vs Low Dose) of the same molecule?
Answer: 31.06%

Question: And the “Mode B Hits Δ, Percent Positive” value (male runners; Dehydration vs Low Dose)?
Answer: 10.62%

Question: And the “Mode B Hits Δ, Percent Trivial” value (male runners; Dehydration vs Low Dose)?
Answer: 58.32%

Question: What about the “Mode B Avg Δ, Interpretation” value (male runners; Gatorade vs High Dose) of the same molecule?
Answer: No

Question: And the “Mode B Hits Δ, Interpretation” value (male runners; Gatorade vs High Dose)?
Answer: Unclear

Question: What about the “Mode B Hits Δ, Mean Difference” value (male runners; Gatorade vs High Dose) of the same molecule?
Answer: −0.5

Question: And the “Mode B Hits Δ, Percent Negative” value (male runners; Gatorade vs High Dose)?
Answer: 33.43%

Question: What about the “Mode B Hits Δ, Percent Positive” value (male runners; Gatorade vs High Dose) of the same molecule?
Answer: 25.96%

Question: What about the “Mode B Hits Δ, Percent Trivial” value (male runners; Gatorade vs High Dose) of the same molecule?
Answer: 40.61%

Question: And the “Mode B Avg Δ (time per hit), group mean” value (male runners; High Dose (1 g per 500 ml))?
Answer: 0

Question: And the “Mode B Hits Δ, group mean” value (male runners; High Dose (1 g per 500 ml))?
Answer: 2.75

Question: And the “Mode B Avg Δ (time per hit), group mean” value (male runners; Low Dose (300 mg per 500 ml))?
Answer: −0.0158

Question: What about the “Mode B Hits Δ, group mean” value (male runners; Low Dose (300 mg per 500 ml)) of the same molecule?
Answer: 4.5

Question: And the “Mode B Avg Δ, Interpretation” value (male runners; Low Dose vs Gatorade)?
Answer: possibly negative

Question: What about the “Mode B Avg Δ, Mean Difference” value (male runners; Low Dose vs Gatorade) of the same molecule?
Answer: −0.016

Question: And the “Mode B Avg Δ, Percent Negative” value (male runners; Low Dose vs Gatorade)?
Answer: 70.44%

Question: And the “Mode B Avg Δ, Percent Positive” value (male runners; Low Dose vs Gatorade)?
Answer: 1.16%

Question: What about the “Mode B Avg Δ, Percent Trivial” value (male runners; Low Dose vs Gatorade) of the same molecule?
Answer: 28.39%

Question: What about the “Mode B Hits Δ, Interpretation” value (male runners; Low Dose vs Gatorade) of the same molecule?
Answer: Unclear

Question: And the “Mode B Hits Δ, Mean Difference” value (male runners; Low Dose vs Gatorade)?
Answer: 2.3

Question: What about the “Mode B Hits Δ, Percent Negative” value (male runners; Low Dose vs Gatorade) of the same molecule?
Answer: 25.04%

Question: What about the “Mode B Hits Δ, Percent Positive” value (male runners; Low Dose vs Gatorade) of the same molecule?
Answer: 48.77%

Question: And the “Mode B Hits Δ, Percent Trivial” value (male runners; Low Dose vs Gatorade)?
Answer: 26.19%

Question: And the “Mode B Avg Δ, Interpretation” value (male runners; Low Dose vs High Dose)?
Answer: Unclear

Question: And the “Mode B Avg Δ, Mean Difference” value (male runners; Low Dose vs High Dose)?
Answer: −0.016

Question: And the “Mode B Avg Δ, Percent Negative” value (male runners; Low Dose vs High Dose)?
Answer: 64.75%

Question: And the “Mode B Avg Δ, Percent Positive” value (male runners; Low Dose vs High Dose)?
Answer: 5.03%

Question: And the “Mode B Avg Δ, Percent Trivial” value (male runners; Low Dose vs High Dose)?
Answer: 30.22%

Question: What about the “Mode B Hits Δ, Interpretation” value (male runners; Low Dose vs High Dose) of the same molecule?
Answer: Unclear

Question: What about the “Mode B Hits Δ, Mean Difference” value (male runners; Low Dose vs High Dose) of the same molecule?
Answer: 1.8

Question: What about the “Mode B Hits Δ, Percent Negative” value (male runners; Low Dose vs High Dose) of the same molecule?
Answer: 7.59%

Question: And the “Mode B Hits Δ, Percent Positive” value (male runners; Low Dose vs High Dose)?
Answer: 40.19%

Question: And the “Mode B Hits Δ, Percent Trivial” value (male runners; Low Dose vs High Dose)?
Answer: 52.22%

Question: And the “successful hits in MODE B and time per successful hits” value (male runners; between trials)?
Answer: No differences were noted between trials
